Laboratory results from patent US9302999B2, “Substituted triazoles as herbicides” (E. I. DU PONT DE NEMOURS AND COMPANY, priority 2012, dated 2016).
Like-named read-outs stand apart in the source and are kept apart here.

Tests used:
Assay type in all cases: in vivo
[1] = tested on: sedge, umbrella (small-flower umbrella sedge Cyperus difformis); assay: Test B flooded paddy: sedge, umbrella; settings: Flood, applied to paddy water at 2-leaf stage, visually evaluated after 13 to 15 days
Method in brief: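 Plants were grown to the 2-leaf stage and pots flooded to 3 cm above soil. Compounds were applied directly into the paddy water, with depth kept for the test. After 13–15 days in greenhouse, response was rated visually against controls on a 0 (no effect) to 100 (complete control) scale.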

[2] = tested on: barnyardgrass (Echinochloa crus-galli); assay: Test C flooded paddy test: barnyardgrass; settings: scale 0 to 100 (0 no effect, 100 complete control); for pest or weed control at 125 g/ha / pest or weed control at 250 g/ha / pest or weed control at 31 g/ha / pest or weed control at 62 g/ha: Echinochloa crus-galli, read-out: Plant response rating, Barnyardgrass
Method in brief: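 Plants at 2-leaf stage in pots flooded 3 cm above soil; compounds applied directly into the paddy water, depth maintained. Visual rating against controls after 13–15 days in greenhouse, scale 0 (no effect) to 100 (complete control).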

[3] = tested on: foxtail, green (green foxtail, Setaria viridis); assay: Test D pre-/postemergence: foxtail, green
Text: (§1) Seeds of plant species selected from bluegrass (annual bluegrass, Poa annua), blackgrass (Alopecurus myosuroides), canarygrass (Phalaris minor), chickweed (common chickweed, Stellaria media), galium (catchweed bedstraw, Galium aparine), bromegrass, downy (downy bromegrass, Bromus tectorum), field poppy (Papaver rhoeas), field violet (Viola arvensis), foxtail, green (green foxtail, Setaria viridis), deadnettle (henbit deadnettle, Lamium amplexicaule), ryegrass, Italian (Italian ryegrass, Lolium multiflorum), kochia (Kochia scoparia), lambsquarters (Chenopodium album), oilseed rape (Brassica napus), pigweed (Amaranthus retroflexus), Russian thistle (Salsola iberica), chamomile (scentless chamomile, Matricaria inodora), speedwell (bird's-eye speedwell, Veronica persica), barley, spring (spring barley, Hordeum vulgare), wheat, spring (spring wheat, Triticum aestivum), buckwheat, wild (wild buckwheat, Polygonum convolvulus), mustard, wild (wild mustard, Sinapis arvensis), oat, wild (wild oat, Avena fatua), radish, wild (wild radish, Raphanus raphanistrum), windgrass (Apera spica-venti), barley, winter (winter barley, Hordeum vulgare), and wheat, winter (winter wheat, Triticum aestivum) were planted into a silt loam soil and treated preemergence with test chemicals formulated in a non-phytotoxic solvent mixture which included a surfactant. At the same time, these same crop and weed species were planted in pots containing the planting medium comprising spaghnum peat moss, vermiculite, wetting agent and starter nutrients and treated with postemergence applications of the test chemicals formulated in the same manner. Plants ranged in height from 2 to 18 cm (1- to 4-leaf stage).
(§2) Treated plants and controls were maintained in a controlled growth environment for 14 to 21 days after which time all species were compared to controls and visually evaluated. Plant response ratings, summarized in Table D, are based on a scale of 0 to 100 where 0 is no effect and 100 is complete control. A dash (-) response means no test result.

[4] = tested on: ryegrass, Italian (Italian ryegrass, Lolium multiflorum); assay: Test D pre-/postemergence: ryegrass, Italian
Text: as §1, §2

[5] = tested on: pigweed (Amaranthus retroflexus); assay: Test D pre-/postemergence: pigweed
Text: as §1, §2

[6] = tested on: Russian thistle (Salsola iberica); assay: Test D pre-/postemergence: Russian thistle; settings: Postemergence
Text: as §1, §2

[7] = tested on: wheat, spring (spring wheat, Triticum aestivum); assay: Test D pre-/postemergence: wheat, spring
Text: as §1, §2

[8] = tested on: mustard, wild (wild mustard, Sinapis arvensis); assay: Test D pre-/postemergence: mustard, wild
Text: as §1, §2

[9] = tested on: barley (winter barley, Hordeum vulgare); assay: Test C postemergence: barley
Text: At the same time, plants selected from these crop and weed species and also barley (winter barley, Hordeum vulgare), canarygrass (Phalaris minor), chickweed (common chickweed, Stellaria media) windgrass (Apera spica-venti) and deadnettle (henbit deadnettle, Lamium amplexicaule) were planted in pots containing Redi-Earth® planting medium (Scotts Company, 14111 Scottslawn Road, Marysville, Ohio 43041) comprising spaghnum peat moss, vermiculite, wetting agent and starter nutrients and treated with postemergence applications of test chemicals formulated in the same manner. Plants ranged in height from 2 to 18 cm (1- to 4-leaf stage) for postemergence treatments.
as §2, with “greenhouse” for “controlled growth environment”, “13” for “14”, “15 days,” for “21 days”, “C,” for “D,”

[10] = Flood (flooded paddy test), 125 g ai/ha, visual rating after 13 to 15 days
[11] = Flood (flooded paddy test), 250 g ai/ha, visual rating after 13 to 15 days
[12] = Postemergence, 31 g ai/ha, scale 0 to 100 (0 no effect, 100 complete control)
[13] = Postemergence, 62 g ai/ha, scale 0 to 100 (0 no effect, 100 complete control)
[14] = Postemergence, 125 g ai/ha, scale 0 to 100, 0 no effect, 100 complete control
[15] = Postemergence, 16 g ai/ha, scale 0 to 100
[16] = Preemergence, 16 g ai/ha, scale 0 to 100 (0 no effect, 100 complete control)
[17] = Preemergence, 31 g ai/ha, scale 0 to 100 (0 no effect, 100 complete control)
[18] = Preemergence, 62 g ai/ha, scale 0 to 100
[19] = Preemergence, 125 g ai/ha, scale 0 to 100
[20] = 31 g ai/ha, scale 0 to 100 (0 no effect, 100 complete control)
[21] = 62 g ai/ha, scale 0 to 100 (0 no effect, 100 complete control)
[22] = 125 g ai/ha, scale 0 to 100, 0 no effect, 100 complete control
[23] = Flood (flooded paddy test), 62 g ai/ha, visual rating after 13 to 15 days

CCOc1nn(-c2ccc(Br)cc2)nc1Cc1ccnc(C(F)(F)F)c1 [Compound 189]
Plant response rating, Sedge, Umbrella (0 to 100 scale, 0 is no effect, 100 is complete control) ([1]; 125 g ai/ha): 0

CCc1nn(-c2ccc(F)cc2)nc1Oc1ccnc(C(F)(F)F)c1 [Compound 166]
Plant response rating, Sedge, Umbrella (0 to 100 scale, 0 is no effect, 100 is complete control) ([1]; 125 g ai/ha): 70

Cc1nn(-c2ccc(C(F)(F)F)c(F)c2)nc1Cc1ccnc(C(F)(F)F)c1 [Compound 162]
Plant response rating, Sedge, Umbrella (0 to 100 scale, 0 is no effect, 100 is complete control) ([1]; 125 g ai/ha): 80

CCc1nn(-c2ccc(C(F)(F)F)cc2)nc1Oc1cccc(OC(F)(F)F)c1 [Compound 125, 4-ethyl-5-[3-(trifluoromethoxy)phenoxy]-2-[4-(trifluoromethyl)phenyl]-2H-1,2,3-triazole]
pest or weed control at 125 g/ha [2, 10]: 0% | pest or weed control at 250 g/ha [2, 11]: 10% | pest or weed control at 31 g/ha ([2]; Flood, 31 g ai/ha): 0% | pest or weed control at 62 g/ha ([2]; Flood, 62 g ai/ha): 0%

Cc1nn(-c2ccc(F)c(C(F)(F)F)c2)nc1Oc1ccnc(C(F)(F)F)c1 [Compound 147]
Plant response rating, Sedge, Umbrella (0 to 100 scale, 0 is no effect, 100 is complete control) ([1]; 250 g ai/ha): 80 | Plant response rating: Foxtail, Green [3, 12]: 15 | Plant response rating: Foxtail, Green [3, 13]: 25 | Plant response rating: Foxtail, Green [3, 14]: 60 | Plant response rating, Foxtail, Green [3, 15]: 15 | Plant response rating, Foxtail, Green [3, 16]: 10 | Plant response rating, Foxtail, Green [3, 17]: 25 | Plant response rating, Foxtail, Green [3, 18]: 75 | Plant response rating, Foxtail, Green [3, 19]: 100 | Plant response rating: Ryegrass, Italian [4, 12]: 10 | Plant response rating: Ryegrass, Italian [4, 13]: 15 | Plant response rating: Ryegrass, Italian [4, 14]: 35 | Plant response rating, Ryegrass, Italian [4, 15]: 5 | Plant response rating, Ryegrass, Italian [4, 16]: 0 | Plant response rating, Ryegrass, Italian [4, 17]: 5 | Plant response rating, Ryegrass, Italian [4, 18]: 15 | Plant response rating, Ryegrass, Italian [4, 19]: 30 | Plant response rating: Pigweed [5, 12]: 70 | Plant response rating: Pigweed [5, 13]: 85 | Plant response rating: Pigweed [5, 14]: 95 | Plant response rating, Pigweed [5, 15]: 75 | Plant response rating, Pigweed [5, 16]: 35 | Plant response rating, Pigweed [5, 17]: 75 | Plant response rating, Pigweed [5, 18]: 80 | Plant response rating, Pigweed [5, 19]: 100 | Plant response rating: Russian Thistle [6, 20]: 85 | Plant response rating: Russian Thistle [6, 21]: 80 | Plant response rating: Russian Thistle [6, 22]: 80 | Plant response rating, Russian Thistle ([6]; 16 g ai/ha, scale 0 to 100): 45 | Plant response rating: Wheat, Spring [7, 12]: 15 | Plant response rating: Wheat, Spring [7, 13]: 20 | Plant response rating: Wheat, Spring [7, 14]: 25 | Plant response rating, Wheat, Spring [7, 15]: 10 | Plant response rating, Wheat, Spring [7, 16]: 0 | Plant response rating, Wheat, Spring [7, 17]: 0 | Plant response rating, Wheat, Spring [7, 18]: 0 | Plant response rating, Wheat, Spring [7, 19]: 5 | Plant response rating: Mustard, Wild [8, 12]: 100 | Plant response rating: Mustard, Wild [8, 13]: 100 | Plant response rating: Mustard, Wild [8, 14]: 100 | Plant response rating, Mustard, Wild [8, 15]: 95 | Plant response rating, Mustard, Wild [8, 16]: 55 | Plant response rating, Mustard, Wild [8, 17]: 60 | Plant response rating, Mustard, Wild [8, 18]: 100 | Plant response rating, Mustard, Wild [8, 19]: 95

CCCc1nn(-c2ccc(F)cc2)nc1Cc1ccnc(C(F)(F)F)c1 [Compound 153]
Plant response rating, Sedge, Umbrella (0 to 100 scale, 0 is no effect, 100 is complete control) ([1]; 250 g ai/ha): 90

Cc1nn(-c2ccc(C(F)(F)F)cc2)nc1Cc1cccc(C(F)(F)F)c1 [Compound 124]
Plant response rating, Barley ([9]; 16 g ai/ha, scale 0 to 100, 0 no effect, 100 complete control): 5 | Plant response rating, Barley [9, 20]: 15 | Plant response rating, Barley [9, 21]: 30 | Plant response rating, Barley [9, 22]: 30 | Plant response rating, Barnyardgrass [2, 10]: 50 | Plant response rating, Barnyardgrass [2, 11]: 50 | Plant response rating, Barnyardgrass ([2]; Flood, 31 g ai/ha): 20 | Plant response rating, Barnyardgrass ([2]; Flood, 62 g ai/ha): 40

COc1nn(-c2ccc(C(F)(F)F)cc2)nc1Cn1ccc(C(F)(F)F)n1 [Compound 17, 4-methoxy-2-[4-(trifluoromethyl)phenyl]-5-[[3-(trifluoromethyl)-1H-pyrazol-1-yl]methyl]-2H-1,2,3-triazole]
pest or weed control at 62 g/ha [2, 23]: 20% | pest or weed control at 125 g/ha [2, 10]: 40% | pest or weed control at 250 g/ha [2, 11]: 45% | pest or weed control at 31 g/ha ([2]; Flood, 31 g ai/ha): 0%

CCCc1nn(-c2ccc(C(F)(F)F)c(F)c2)nc1Oc1ccnc(C(F)(F)F)c1 [Compound 185]
Plant response rating, Sedge, Umbrella (0 to 100 scale, 0 is no effect, 100 is complete control) ([1]; 250 g ai/ha): 95

Cc1nn(-c2ccc(C(F)(F)F)cc2)nc1Cc1ccnc(C(F)(F)F)c1 [Compound 47, 4-[[5-methyl-2-[4-(trifluoromethyl)phenyl]-2H-1,2,3-triazol-4-yl]methyl]-2-(trifluoromethyl)pyridine]
Plant response rating, Barley [9, 20]: 35 | Plant response rating, Barley [9, 21]: 45 | Plant response rating, Barley [9, 22]: 50 | Plant response rating, Barley ([9]; 250 g ai/ha, scale 0 to 100): 55 | pest or weed control at 62 g/ha [2, 23]: 50% | pest or weed control at 125 g/ha [2, 10]: 80% | pest or weed control at 250 g/ha [2, 11]: 80% | pest or weed control at 31 g/ha ([2]; Flood, 31 g ai/ha): 40%
